Data from patent US20240051956A1, “SOS1 INHIBITORS AND USES THEREOF” (QILU REGOR THERAPEUTICS INC., priority 2020, published 2024).
pIC50: −log10 of the molar value.

Assays:
[1] = target: SOS1 and KRAS G12D (Homo sapiens (Human), UniProt Q07889); experiment: KRAS::SOS1 AlphaScreen Binding Assay; settings: SOS1 (564-1049), KRAS G12D (1-169), GDP
Excerpt: a. KRAS::SOS1 AlphaScreen Binding Assay
Low IC50 values of given compounds are indicative of high potency of the SOS1 inhibitor compounds in this assay setting.
• GST-TEV-SOS1 (564-1049) and His-TEV-Avi-KRAS G12D (1-169) are purchased from Viva Biotech (Shanghai) Ltd. • GDP (Sigma, Cat. G7127) • AlphaLISA Glutathione Acceptor Beads (PerkinElmer, Cat. AL109C) • AlphaScreen Streptavidin Donor Beads (PerkinElmer, Cat. 6760002S) • Assay plates: ProxiPlate-384 Plus, White 384-shallow well Microplate (PerkinElmer, Cat. 6008280)
SOS1 inhibitor compounds are diluted to a final start concentration of […]. Serial dilutions of compounds are made using Tecan D300e Digital Dispenser in 9 concentrations with serial 1:3 dilutions. 100 nL of compound solution is transferred to the 384-well assay plate per well, covering a range between 1 μM and 0.15 nM minimum in duplicate. 10 nM (final assay concentration) KRAS G12D, 5 nM (final assay concentration) SOS1 and 10 μM (final assay concentration) GDP are mixed in assay buffer, and 5 μL of KRAS::SOS1 GDP mix is added into the assay plate to the 100 nL of compound solution (final dilution in the assay 1:100, final DMSO concentration 1%). After a 30 min incubation, AlphaLISA Glutathione Acceptor Beads and AlphaScreen Streptavidin Donor Beads are mixed in assay buffer at a concentration of 5 µg/mL (final assay concentration), and 5 μL of bead mix is added into the assay plate. Plates are kept at room temperature in a darkened incubator for 3 h. After a 3 h incubation, the signal is determined using Envision (PerkinElmer). The excitation wavelength is 680 nm, and emission 615 nm. IC50 values are calculated and analyzed using GraphPad Prism.

[2] = system: NCI-H358; experiment: Cell proliferation assay, 3D, CellTiter-Glo 3D; assay type: cell-based, human; settings: Homo sapiens, 72 h; NCI-H358 (KRAS G12C), 3D ultra-low attachment, 3 days; read-out: anit-prolif. H358 IC50
Method: b. Cell Proliferation Assay
Low IC50 values are indicative of high potency of the compounds in this assay setting.
Cell proliferation assay is performed in three-dimensional (3D) ultra-low conditions with the human cell line NCI-H358, a human non-small cell lung cancer (NSCLC) cell line with a KRAS G12C mutation.
• 96-well Clear Round Bottom Ultra-Low Attachment Microplate (Corning, Cat. 7007) • 96-well Flat Clear Bottom White Polystyrene TC-treated Microplates (Corning, Cat. 3610) • RPMI-1640 Medium (Gibco, Cat. 22400105) • Fetal Bovine Serum (FBS) (Gibco, Cat. 10099141C) • 0.25% Trypsin-EDTA (Gibco, Cat. 25200056) • Penicillin-Streptomycin (Gibco, Cat. 15140122) • CellTiter-Glo 3D Cell Viability Assay (Promega, Cat. G9683)
NCI-H358 cells (ATCC, Cat. CRL-5807) are grown in cell culture flasks using RPMI medium supplemented with 10% FBS. Cells are incubated at 37° C. and 5% C02 in a humidified atmosphere, with sub-cultivation performed twice a week. Cells are trypsinized, counted and plated in 96-well ultra-low adhesion plates for 3D cell viability determination. The day after plating, serial dilutions of SOS1 inhibitor compounds are made using Tecan D300e Digital Dispenser to evaluate a concentration-dependent effect on cell viability. The concentration of the test compounds covers a range between 5 μM and 0.76 nM with serial 1:3 dilutions in 9 concentrations. 0.5 μL serial dilutions of the compounds are added in duplicates. 3 days later, the CellTiter-Glo 3D Cell Viability Assay is used to measure cell viability effects of SOS1 inhibitor compounds in 3D format. Luminescent intensity is determined using Envision (PerkinElmer). Data is analyzed and IC50 values are calculated using GraphPad Prism.

SOS1 and KRAS G12D, sequence (Q07889 564-1049, stated change not applied): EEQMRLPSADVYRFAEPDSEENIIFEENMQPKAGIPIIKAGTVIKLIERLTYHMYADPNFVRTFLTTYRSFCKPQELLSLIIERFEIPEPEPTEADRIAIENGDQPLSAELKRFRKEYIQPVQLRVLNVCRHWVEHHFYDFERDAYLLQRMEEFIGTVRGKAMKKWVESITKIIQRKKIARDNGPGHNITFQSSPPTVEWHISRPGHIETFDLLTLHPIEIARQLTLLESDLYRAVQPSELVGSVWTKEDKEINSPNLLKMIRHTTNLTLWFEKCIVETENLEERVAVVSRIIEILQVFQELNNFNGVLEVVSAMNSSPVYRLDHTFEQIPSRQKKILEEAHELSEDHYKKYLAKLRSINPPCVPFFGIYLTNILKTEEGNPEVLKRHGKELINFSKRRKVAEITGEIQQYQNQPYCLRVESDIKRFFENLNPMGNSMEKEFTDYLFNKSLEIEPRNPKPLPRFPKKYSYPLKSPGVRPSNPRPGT

Row | Compound | pIC50 [1] | pIC50 [2]
1 | Cc1nc(NCc2ccc3cc[nH]c3c2)c2cn(N3CCOCC3)c(=O)cc2n1 [Example 27] | < 6.00 | –
2 | Cc1nc(N[C@H](C)c2cccc(C(F)F)c2F)c2cn(N3CC4CC3CO4)c(=O)cc2n1 (stereo partly drawn) [Example 8] | ≥ 7.82 | 6.30 to 7.00
3 | Cc1nc(N[C@H](C)c2cccc(C(F)F)c2F)c2cn(N3CCN(C(=O)CO)CC3)c(=O)cc2n1 [Example 13, 4-[[(1R)-1-[3-(difluoromethyl)-2-fluoro-phenyl]ethyl]amino]-6-[4-(2-hydroxyacetyl)piperazin-1-yl]-2-methyl-pyrido[4,3-d]pyrimidin-7-one] | ≥ 7.82 | 6.00 to 6.30
4 | Cc1nc(N[C@H](C)c2cccc(C(F)(F)F)c2F)c2cn(N3CCOCC3)c(=O)cc2n1 [Example 19] | ≥ 7.82 | 6.30 to 7.00
5 | Cc1nc(N[C@H](C)c2cccc(C(F)F)c2F)c2cn(N3CCOCC3)c(=O)c(Br)c2n1 [Example 40, 8-bromo-4-[[(1R)-1-[3-(difluoromethyl)-2-fluoro-phenyl]ethyl]amino]-2-methyl-6-morpholino-pyrido[4,3-d]pyrimidin-7-one] | ≥ 7.82 | ≥ 7.00
6 | Cc1nc(N[C@H](C)c2cccc(C(F)(F)CO)c2)c2cn(N3CCOCC3)c(=O)cc2n1 [Example 18] | ≥ 7.82 | 6.00 to 6.30
7 | Cc1nc(N[C@H](C)c2cccc(C(F)(F)F)c2)c2cn(N3CCOCC3)c(=O)c(F)c2n1 [Example 33] | ≥ 7.82 | 6.30 to 7.00
8 | Cc1nc(N[C@H](C)c2cccc(C(F)F)c2F)c2cn(N3CCS(=O)(=O)CC3)c(=O)cc2n1 [Example 36] | ≥ 7.82 | 6.30 to 7.00
9 | Cc1nc(N[C@H](C)c2cccc(C(F)F)c2F)c2cn(N3CC4(COC4)C3)c(=O)cc2n1 [Example 9] | ≥ 7.82 | 6.30 to 7.00
10 | Cc1nc(N[C@H](C)c2cccc(C(F)F)c2F)c2cn(N3CCOCC3)c(=O)c(C)c2n1 [Example 44] | ≥ 7.82 | ≥ 7.00
11 | Cc1nc(NCc2cccc(C(F)(F)F)c2)c2cn(N3CCOCC3)c(=O)cc2n1 [Example 26] | 6.82 to 7.82 | –
12 | Cc1nc(N[C@@H](C)c2cccc(C(F)F)c2C)c2cn(N3CCOCC3)c(=O)cc2n1 [Example 22] | 6.00 to 6.82 | < 6.00
13 | Cc1nc(N[C@H](C)c2cccc(C(F)F)c2F)c2cn(N3CCC(F)(F)CC3)c(=O)cc2n1 [Example 3] | ≥ 7.82 | 6.30 to 7.00
14 | Cc1nc(N[C@H](C)c2cccc(C(F)F)c2F)c2cn(N3CCC(O)CC3)c(=O)cc2n1 [Example 37] | ≥ 7.82 | 6.30 to 7.00
15 | Cc1nc(N[C@H](C)c2cccc(C(F)F)c2C)c2cn(N3CCOCC3)c(=O)cc2n1 [Example 21] | ≥ 7.82 | ≥ 7.00
16 | CC(=O)N1CCN(n2cc3c(N[C@H](C)c4cccc(C(F)F)c4F)nc(C)nc3cc2=O)CC1 [Example 11, 6-(4-acetylpiperazin-1-yl)-4-[[(1R)-1-[3-(difluoromethyl)-2-fluoro-phenyl]ethyl]amino]-2-methyl-pyrido[4,3-d]pyrimidin-7-one] | ≥ 7.82 | 6.00 to 6.30
17 | Cc1nc(NC(C)c2cc(C(F)F)cc(C(F)F)c2)c2cn(N3CCOCC3)c(=O)cc2n1 (stereo not drawn) [Example 28] | 6.00 to 6.82 | –
18 | Cc1nc(NC(C)C2CC2)c2cn(N3CCOCC3)c(=O)cc2n1 (stereo not drawn) [Example 23] | < 6.00 | –

Other lines, results leading:

Row | pIC50 [1] | pIC50 [2] | Compound
19 | ≥ 7.82 | ≥ 7.00 | Cc1nc(N[C@H](C)c2cccc(C(F)F)c2F)c2cn(N3CCOCC3)c(=O)c(-c3cn(CC(F)F)cn3)c2n1 [Example 69]
20 | 6.82 to 7.82 | ≥ 7.00 | Cc1nc(N[C@H](C)c2cccc(C(F)F)c2F)c2cn(N3CCOCC3)c(=O)c(-c3ccc(C(F)(F)F)nc3)c2n1 [Example 60]
21 | ≥ 7.82 | 6.00 to 6.30 | Cc1nc(N[C@H](C)c2cccc(C(F)F)c2F)c2cn(N3CCOCC3)c(=O)c(-c3ccc(=O)[nH]c3)c2n1 [Example 49]
22 | ≥ 7.82 | 6.30 to 7.00 | Cc1nc(N[C@H](C)c2cccc(C(F)F)c2F)c2cn(N3CCOCC3)c(=O)c(-c3ccc(F)nc3)c2n1 [Example 50]
23 | ≥ 7.82 | 6.30 to 7.00 | Cc1nc(N[C@H](C)c2cccc(C(F)F)c2F)c2cn(N3CCOCC3)c(=O)c(-c3ccccc3)c2n1 [Example 47]
24 | ≥ 7.82 | 6.30 to 7.00 | Cc1nc(N[C@H](C)c2cccc(C(F)F)c2F)c2cn(N3CCOCC3)c(=O)c(-c3ccnc(C#N)c3)c2n1 [Example 68]
25 | ≥ 7.82 | ≥ 7.00 | Cc1nc(N[C@H](C)c2cccc(C(F)F)c2F)c2cn(N3CCOCC3)c(=O)c(-c3ccncc3)c2n1 [Example 46]
26 | 6.82 to 7.82 | 6.00 to 6.30 | Cc1nc(N[C@H](C)c2cccc(C(F)F)c2F)c2cn(-n3ccnc3)c(=O)c(F)c2n1 [Example 86]
27 | ≥ 7.82 | 6.30 to 7.00 | Cc1nc(N[C@H](C)c2cccc(C(F)F)c2F)c2cn(N3CCOCC3)c(=O)c(-c3ccc(P(C)(C)=O)nc3)c2n1 [Example 71]
28 | ≥ 7.82 | – | COC(=O)c1ccc(-c2c(=O)n(N3CCOCC3)cc3c(N[C@H](C)c4cccc(C(F)F)c4F)nc(C)nc23)cn1 [Example 79]
29 | ≥ 7.82 | 6.30 to 7.00 | CNCc1ccccc1-c1csc([C@@H](C)Nc2nc(C)nc3cc(=O)n(N4CCOCC4)cc23)c1 [Example 77, 2-methyl-4-[[(1R)-1-[4-[2-(methylaminomethyl)phenyl]-2-thienyl]ethyl]amino]-6-morpholino-pyrido[4,3-d]pyrimidin-7-one]
30 | 6.82 to 7.82 | 6.00 to 6.30 | Cc1nc(N[C@H](C)c2cccc(C(F)F)c2F)c2cn(N3CCOCC3)c(=O)c(-c3ccc(F)c(C#N)c3)c2n1 [Example 63]
31 | ≥ 7.82 | 6.30 to 7.00 | Cc1nc(N[C@H](C)c2cccc(C(F)F)c2F)c2cn(N3CCOCC3)c(=O)c(C3=CCN(S(C)(=O)=O)CC3)c2n1 [Example 55]
32 | 6.82 to 7.82 | 6.30 to 7.00 | Cc1nc(N[C@H](C)c2cccc(C(F)F)c2F)c2cn(N3CCOCC3)c(=O)c(-c3cc(C#N)ccc3F)c2n1 [Example 65]
33 | 6.82 to 7.82 | 6.30 to 7.00 | Cc1nc(N[C@H](C)c2cccc(C(F)(F)F)c2C)c2cn(N3CCOCC3)c(=O)c(-c3ccc(C#N)nc3)c2n1 [Example 76]
34 | ≥ 7.82 | – | Cc1nc(N[C@H](C)c2cccc(C(F)F)c2F)c2cn(N3CCOCC3)c(=O)c(-c3ccc(C(=O)O)nc3)c2n1 [Example 78]
35 | 6.00 to 6.82 | – | Cc1nc(N[C@H](C)c2cccc(C(F)F)c2F)c2cn(-n3cnnc3)c(=O)c(F)c2n1 [Example 87]
36 | ≥ 7.82 | – | Cc1nc(N[C@H](C)c2cc(N)cc(C(F)(F)F)c2)c2cn(N3CCOCC3)c(=O)c(-c3ccc(C#N)nc3)c2n1 [Example 83]
37 | ≥ 7.82 | – | Cc1nc(N[C@H](C)c2cccc(C(F)F)c2F)c2cn(N3CCOCC3)c(=O)c(-c3ccn[nH]3)c2n1 [Example 81]
38 | ≥ 7.82 | – | Cc1nc(N[C@H](C)c2cccc(C(F)F)c2F)c2cn(N3CCOCC3)c(=O)c(-c3cnc4nccn4c3)c2n1 [Example 84]
39 | ≥ 7.82 | – | Cc1nc(N[C@H](C)c2cccc(C(F)F)c2F)c2cn(N3CCOCC3)c(=O)c(-c3ccc(C(N)=O)nc3)c2n1 [Example 80]
40 | ≥ 7.82 | – | Cc1nc(N[C@H](C)c2cccc(C(F)(F)CO)c2)c2cn(N3CCOCC3)c(=O)c(-c3ccc(C#N)nc3)c2n1 [Example 82]
41 | ≥ 7.82 | – | Cc1nc(N[C@H](C)c2cccc(C(F)F)c2F)c2cn(N3CCOCC3)c(=O)c(C3=CCS(=O)(=O)CC3)c2n1 [Example 85]
